Reference: patent publication US4407794A, “Peptides and therapeutic applications thereof” (Centre National de la Recherche Scientifique (CNRS), priority 1980, dated 1983)
pIC50: −log10 of the molar value. Peptide text beside a SMILES is read from it.

Tests used:
rats [1] = experiment: Anti-diarrhea action, castor oil test; assay type: in vivo; conditions: 10 rats, one hour prior to castor oil
Method: This action was investigated by the castor oil test in rats, using the method according to Niemegeers and co-workers (Arzn.-Forsch. 22, 516-518, 1972).
The tests were conducted with male rats of 160-220 g body weight. After an 18 hr fasting period, each animal was orally administered 1 ml castor oil.
The test compounds, dissolved in water, were administered orally under a volume of 0.5 ml per 100 g body weight, one hour prior to the castor oil administration.

rats [2] = experiment: Locomotor activity after i.v. administration; assay type: in vivo; conditions: 5 mg/kg i.v., male rats, group of 10; saline reference group 100 ± 15%
Method: This preferential effect of δ-specific compound I on the dopaminergic receptors may be evidenced by i.v. administration of compound I and determination of the locomotor activity according to STINUS et al. Proc.Natl. Acad.Sci.USA 77, 2302 (1980). Each experiment was conducted on a group of 10 animals (male rats weighing 200-250 g) and the results obtained were compared with those of a reference group.

mice = experiment: Analgesic activity, hot-plate (65° C.) test, i.v.; assay type: in vivo; conditions: for Reaction time (s) 15' Licking: 15 minutes; for Reaction time (s) 30' Leap: 30 minutes; for Reaction time (s) 60' Adjusted jump: 60 minutes; for Reaction time (s) 90' Adjusted jump: 90 minutes
Method: The compounds were tested in vivo by the intravenous route (i.v.) in mice, using the hot-plate (65° C.) test in mice, according to the method disclosed by JACOB & BLOZOVSKI (Arch.Int.Pharmacodyn. 1961, 33,296) by determination of the licking reflex at 15 minutes, of the leap at 30 minutes and of the adjusted jump at 60 and 90 minutes.
DAla2 Met-Enkephalin was used as reference material.

liberation of dopamine = experiment: Spontaneous liberation of dopamine, ICV injection tests; assay type: in vivo
rats [3] = experiment: Naxolone susceptibility test, appearance of dependence (abstinence jumps); assay type: in vivo; conditions: 25 mg/kg 4 times a day for 10 days, Naxolone 10 mg/kg s.c. on the 10th day
Method: This test makes it possible to evaluate the dependence induced by chronic administration of morphinic analgesics. It comprises inducing the dependence condition after 10 days of treatment by injection of a high doage of an antagonist: naxolone. Compound 1 was tested by ICV administration in rats, using the technique according to Frederickson et al., Res. Common.Pathol.Pharmacol. 5, 867(1973).
The results obtained are set forth in Table IV below and are compared with those obtained with morphine.

[4] = assay type: cell-based, mice; conditions: mouse vas deferens, electric stimulation; number of experiments in parentheses; read-out: VAS DEFERENS IC 50
Method: (§1) The study of the action on μ receptors or on σ receptors was conducted as a function of the effect on the isolated ileum of guinea-pigs or on the vas deferens of mice.
(§2) The action on the σ receptors was determined by the measure of the 50% inhibiting concentration (IC 50) of the contraction of the vas deferens of mice, induced by electric stimulation.
(§3) The 50% inhibiting concentrations are expressed as nanomolar/liter concentrations.
(§4) The ratio [formula] makes it possible to find out whether the test material is […] σ- specific. In said Table, the number of experiments is indicated between parentheses.

σ receptors = assay type: cell-based, mice; conditions: for VAS DEFERENS Relative action: % activity with respect to Met-Enkephalin=100; for R IC 50 ileum / IC 50 V.D.: ratio of ileum (μ) IC50 to vas deferens IC50
Method: as §1, §2, §3, §4

μ receptors = μ receptors (Cavia porcellus, UniProt P97266); experiment: Inhibition of the contraction of the isolated guinea-pig ileum induced by coaxial stimulation; assay type: cell-based, guinea-pigs; conditions: for ILEUM Relative action: % activity with respect to Met-Enkephalin=100; for pIC50: isolated guinea-pig ileum, coaxial stimulation, number of experiments in parentheses, read-out: ILEUM IC 50
μ receptors, sequence (P97266 whole entry, looked up): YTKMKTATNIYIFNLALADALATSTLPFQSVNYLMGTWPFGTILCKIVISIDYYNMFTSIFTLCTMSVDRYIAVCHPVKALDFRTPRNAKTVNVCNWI
Method: as §1
The action on the μ receptors was determined by the measure of the 50% inhibiting concentration (IC 50) of the contraction of the isolated ileum of guinea-pigs, induced by coaxial stimulation (PATON W.D.M., Brit.J. Pharm. 1959, 12, 119).
The 50% inhibiting concentrations are expressed as nanomolar/liter concentrations. Each product is tested with respect to Met-Enkephalin as reference material and the results obtained are also expressed as % activity with respect to Met-Enkephalin=100.
as §4

COc1ccc2c3c1O[C@H]1[C@@H](O)C=C[C@H]4[C@@H](C2)N(C)CC[C@@]341 [Codein base]
Number of non-diarrheic animals 2 hours (rats [1]; 3 mg/kg orally): 7
Number of non-diarrheic animals 4 hours (rats [1]; 3 mg/kg orally): 4
Number of non-diarrheic animals 2 hours (rats [1]; 10 mg/kg orally): 10
Number of non-diarrheic animals 4 hours (rats [1]; 10 mg/kg orally): 7

CC(C)C[C@H](NC(=O)[C@H](Cc1ccccc1)NC(=O)CNC(=O)[C@@H](CO)NC(=O)[C@@H](N)Cc1ccc(O)cc1)C(=O)N[C@H](C(=O)O)[C@@H](C)O [Example 1, TyrD.SerGlyPheLeuThr]
Locomotor activity (rats [2]): 65 ± 10%
Reaction time (s) 15' Licking (mice; 35 mg/kg i.v.): 29.4 ± 3.2 s
Reaction time (s) 30' Leap (mice; 35 mg/kg i.v.): 30.1 ± 5.7 s
Reaction time (s) 60' Adjusted jump (mice; 35 mg/kg i.v.): 28.6 ± 7.2 s
Reaction time (s) 90' Adjusted jump (mice; 35 mg/kg i.v.): 32.2 ± 9.2 s
Increase of spontaneous liberation of dopamine (liberation of dopamine; 5×10^-8 M): 100%
Abstinence test (jumps) (rats [3]): 10 ± 2 jumps
pIC50 [4]: 9.10
VAS DEFERENS Relative action (σ receptors): 2250%
R IC 50 ileum / IC 50 V.D. (σ receptors): 796
ILEUM Relative action (μ receptors): 55%
pIC50 (μ receptors): 6.20

CC(C)C[C@H](NC(=O)[C@H](Cc1ccccc1)NC(=O)CNC(=O)[C@@H](C)NC(=O)[C@@H](N)Cc1ccc(O)cc1)C(=O)N[C@H](C(=O)O)[C@@H](C)O [Example 2, TyrD.AlaGlyPheLeuThr] (HELM PEPTIDE1{Y.[dA].G.F.L.T}$$$$V2.0)
pIC50 (μ receptors): 6.30

CSCC[C@H](NC(=O)[C@H](Cc1ccccc1)NC(=O)CNC(=O)[C@@H](C)NC(=O)[C@@H](N)Cc1ccc(O)cc1)C(=O)NCCCCCNS(=O)(=O)c1cccc2c(N(C)C)cccc12 [Example 13 of patent FR 78 12 543]
pIC50 [4]: 6.19
VAS DEFERENS Relative action (σ receptors): 2.7%
R IC 50 ileum / IC 50 V.D. (σ receptors): 0.49
ILEUM Relative action (μ receptors): 110%

CCCC[C@H](NC(=O)[C@H](Cc1ccccc1)NC(=O)CNC(=O)[C@@H](CO)NC(=O)[C@@H](N)Cc1ccc(O)cc1)C(=O)N[C@H](C(=O)O)[C@@H](C)O [Example 25, TyrD.SerGlyPheN.LeuThr]
pIC50 (μ receptors): 5.98

CC(C)C[C@@H](NC(=O)[C@H](Cc1ccccc1)NC(=O)CNC(=O)[C@@H](CO)NC(=O)[C@@H](N)Cc1ccc(O)cc1)C(=O)O [Example 45, TyrD.SerGlyPheD.Leu] (HELM PEPTIDE1{Y.[dS].G.F.[dL]}$$$$V2.0)
pIC50 (μ receptors): 6.61

CSCC[C@H](NC(=O)[C@H](Cc1ccccc1)NC(=O)CNC(=O)CNC(=O)[C@@H](N)Cc1ccc(O)cc1)C(=O)O [Met-Enkephalin]
VAS DEFERENS Relative action (σ receptors): 100%
ILEUM Relative action (μ receptors): 100%
pIC50 (μ receptors): 6.45

CN1CC[C@]23c4c5ccc(O)c4O[C@H]2[C@@H](O)C=C[C@H]3[C@H]1C5.Cl [Morphin (hydrochloride)]
Number of non-diarrheic animals 2 hours (rats [1]; 1 mg/kg orally): 9
Number of non-diarrheic animals 4 hours (rats [1]; 1 mg/kg orally): 4
Number of non-diarrheic animals 2 hours (rats [1]; 3 mg/kg orally): 10
Number of non-diarrheic animals 4 hours (rats [1]; 3 mg/kg orally): 6

CN1CC[C@]23c4c5ccc(O)c4O[C@H]2[C@@H](O)C=C[C@H]3[C@H]1C5 [Morphin, morphine]
Increase of spontaneous liberation of dopamine (liberation of dopamine; 10^-6 M): 50%
Abstinence test (jumps) (rats [3]): 74 ± 11 jumps

D.Ala2 Met-Enkephalin
Reaction time (s) 15' Licking (mice; 100 mg/kg i.v.): 5.5 ± 1 s
Reaction time (s) 30' Leap (mice; 100 mg/kg i.v.): 5.5 ± 1.6 s
Reaction time (s) 60' Adjusted jump (mice; 100 mg/kg i.v.): 5.5 ± 1.2 s
Reaction time (s) 90' Adjusted jump (mice; 100 mg/kg i.v.): 5.6 ± 2 s

DAla^2 Met.Enkamide
Increase of spontaneous liberation of dopamine (liberation of dopamine; 10^-6 M): 100%
